Read-outs that look alike come from different tables or passages of the source.

In assay [1] the test system is Escherichia coli ATCC 25922. To be noted: E.c.; for Signal to noise ratio (to sterile): MH1:20; for RLU, 6 h MH1:20: first two minutes of measurement. Here is the method:
(§1) Escherichia coli ATCC 25922 (E.c., beta-galactosidase positive) and Salmonella Enteritidis RKI 05/07992 (S.E., beta-galactosidase negative) were cultivated in Nutrient Broth for 17 h and then serially diluted in sterile saline (0.9% NaCl). Diluted cell suspensions were inoculated 1:100 v/v in test tubes with either full-strength LB medium (10 g/L tryptone, 5 g/L yeast extract, 5 g/L NaCl) or LB medium diluted 1:20 v/v with ultrapure water (LB1:20). All media contained 1 mM IPTG for induction of beta-galactosidase. Sterile saline was added to negative control tubes. After 6 h of cultivation at 37° C. and 150 rpm, samples (0.255 mL) were withdrawn from cultures and mixed with 45 μL stock solution of compound Va in ethanol in a white microtiter plate. […] For comparison, the same E. coli strain was pre-cultured and diluted in a similar way and then inoculated in diluted Mueller-Hinton broth (MH1:20, full-strength medium diluted 1:20 v/v with 20 mM phosphate buffer pH 7.2). The medium was supplemented with 1 mM IPTG. After 6 h of cultivation at 37° C. and 150 rpm, culture samples (45 μL) were transferred to a microtiter plate and mixed with 5 μL of 10x lysis reagent which contained 2% w/v dodecyl-trimethylammonium bromide, 1 mM D-Luciferin-6-O-beta-D-galactopyranoside (commercially available, Biosynth Cat. No. L-8600) and 10 mM magnesium chloride. Lysis and reaction with D-Luciferin-6-O-beta-D-galactopyranoside was carried out for 1 h at 37° C. Then 0.2 mL of luciferase assay mix was added (5:1 v/v). The assay mix contained 62.5 mM Tris acetate (pH 7.8), 12.5 mM magnesium sulfate, 2.5 g/L bovine serum albumin, 7.5 mM D/L-cysteine, 1.25 mM ethylene diamine tetraacetate, 25 μM sodium pyrophosphate, 10 g/L cyclodextrin, 1.25 mM adenosine 5-triphosphate and 13.1 μg/mL commercially available Photinus pyralis luciferase (recombinant). Light emission was recorded with a SpectraMax M5 plate reader.

The test system of assay [2] is Escherichia coli ATCC 25922. Kind of assay: Luminescence of culture samples of carbapenem resistant and sensitive bacteria after addition of compound VIIa. Particulars: E.c.; for RLU max. (with 10 μM VI): 6 h culture, 30 min recording. The assay is classed as cell-based. The protocol:
(§2) Carbapenem resistant bacterial strains Pseudomonas aeruginosa RKI 48/09 (IMP-2) (P.a.-Imp^R) and Klebsiella pneumoniae RKI 92/08 (KPC-2) (K.p.-Imp^R) were cultivated on trypticase soy agar supplemented with 8 mg/L and […] imipenem, respectively. Carbapenem sensitive strain Escherichia coli ATCC 25922 (E.c.) was cultivated on trypticase soy agar. Nutrient broth (for composition and pH see previous examples, 3 mL in 15 mL tubes) with and without imipenem was inoculated with imipenem resistant and sensitive bacteria from agar plates. Tube cultures were incubated for 6 h at 37° C. and 150 rpm. Culture samples (0.255 mL) were transferred to wells of a white microtiter plate and mixed with 45 μL stock solution of compound Vila in ethanol. Final concentrations of compound Vila, ethanol and dimethyl sulfoxide were 10 μM, […] and 1% v/v, respectively. Luminescence was recorded after addition of […] for 30 min with a plate reader.

Assay [3] concerns Pseudomonas aeruginosa RKI 48/09 (IMP-2). The assay is classed as cell-based. To be noted: P.a.-Imp^R; for RLU max. (with 10 μM VI): 6 h culture, 30 min recording. Here is the method:
as §2

Assay [4] concerns Klebsiella pneumoniae RKI 92/08 (KPC-2). The assay is classed as cell-based. Particulars: K.p.-Imp^R; for RLU max. (with 10 μM VI): 6 h culture, 30 min recording. The protocol: as §2
The subject of assay [5] is Salmonella Enteritidis RKI 05/07992. Kind of assay: Luminescence of culture samples after addition of Compound Va with 15% v/v ethanol. The assay is classed as cell-based. To be noted: S.E., inoculation density 10^6 CFU/mL. Here is the method: as §1
The subject of assay [6] is Escherichia coli ATCC 25922. Described as above. The assay is classed as cell-based. Particulars: for Signal to noise ratio, LB1:20 (to sterile) / RLU, 6 h LB / RLU, 6 h LB1:20: E.c.; for RLU, 6 h LB / RLU, 6 h LB1:20: 20 μM, 15% v/v ethanol, 9-10 min after addition. Here is the method: as §1
In assay [7] the test system is Salmonella Enteritidis RKI 05/07992. Kind of assay: Luminescence of cultures containing D-luciferin-6-O-phenyl-caprylate after mixing with luciferase assay mix. The assay is classed as cell-based, Salmonella enterica ssp. enterica ser. Enteritidis. Particulars: S.E.; for RLU, 6 h: 0.1 mM in Nutrient Broth, first 3 min after luciferase assay mix. Here is the method:
D-luciferin-6-O-phenyl-caprylate was synthesized according to procedures known to persons skilled in the art. Salmonella Enteritidis RKI 05/07992 (S.E., Salmonella enterica ssp. enterica ser. Enteritidis, C8 esterase positive) was cultivated in Nutrient Broth (5 g/L peptone, 5 g/L NaCl, 2 g/L […], 1 g/L […], pH 7.4) for 16 h and then serially diluted in sterile saline (0.9% NaCl). Diluted cell suspensions were inoculated 1:100 v/v in test tubes with Nutrient Broth containing 0.1 mM D-luciferin-6-O-phenyl-caprylate. […] Light emission was recorded with a plate reader equipped with a luminescence detection system. Mean RLU (relative light unit) values of first 3 min after addition of luciferase assay mix were compared (Table VII).

Where [8] appears, read: inoculation density 10^2 CFU/mL.
The mark [9] stands for this setting: inoculation density 10^4 CFU/mL.
The mark [10] stands for this setting: inoculation density 10^6 CFU/mL.
Setting [11] is: imipenem 4 mg/L in nutrient broth.
[12] abbreviates: 20 μM, 15% v/v ethanol, 9-10 min after addition.
[13] abbreviates: inoculation density 10^3 CFU/mL.
Setting [14] is: inoculation density 10^5 CFU/mL.

“D-Luciferin-6-O-beta-D-galactopyranoside”: the “Signal to noise ratio (to sterile)” value in assay [1] (setting [8]) was found to be 1.5; in assay [1] (setting [9]) it was 377; in assay [1] (setting [10]), 544. Moreover, the “RLU, 6 h MH1:20” value in assay [1] (setting [8]) is 13367 RLU; in assay [1] (setting [9]), 3306967 RLU; in assay [1] (setting [10]), 4777613 RLU.

Consider `C[C@@H](O)[C@H]1C(=O)N2C(C(=O)O)=C(SCCN=CN)C[C@H]12` [Imipenem, imipenem, reference compound], for which the “OD600 6 h” value came to 0.01 in assay [2] (setting [11]), 0.48 in assay [3] (imipenem 8 mg/L in nutrient broth) and 0.50 in assay [4] (setting [11]).

For the molecule `COC(=O)/C=C/c1ccc(C2(OC)OOC23C2CC4CC(C2)CC3C4)c(Cl)c1OCc1ccc(C2=C(C(=O)O)N3C(=O)[C@H]([C@@H](C)O)[C@H]3[C@H]2C)cc1` (stereo partly drawn) [VIIa, (4S,5R,6S)-3-(4-((2-Chloro-6-((E)-3-methoxy-3-oxoprop-1-en-1-yl)-3-((1r,3r,5S,7S)-4′-methoxyspiro[adamantane-2,3′-[1,2]dioxetan]-4′-yl)phenoxy)methyl)phenyl)-6-((R)-1-hydroxyethyl)-4-methyl-7-oxo-1-azabicyclo[3.2.0]hept-2-ene-2-carboxylicacid], the “RLU max. (with 10 μM VI)” value in assay [2] (imipenem 0 mg/L) is given as 8181 RLU; in assay [2] (imipenem 4 mg/L), 7992 RLU; in assay [3] (imipenem 0 mg/L), 19940 RLU; in assay [3] (imipenem 8 mg/L), 21028 RLU; in assay [4] (imipenem 0 mg/L), 72951 RLU; in assay [4] (imipenem 4 mg/L) it was 72272 RLU. The “Signal to noise ratio (to E.c.)” value in assay [3] (imipenem 0 mg/L) worked out at 2.4; in assay [3] (imipenem 8 mg/L), 2.6; in assay [4] (imipenem 0 mg/L), 8.9; in assay [4] (imipenem 4 mg/L) it was 8.8.

`COC(=O)/C=C/c1ccc(C2(OC)OOC23C2CC4CC(C2)CC3C4)c(Cl)c1OCc1ccc(OC2OC(CO)C(O)C(O)C2O)cc1` (centres unmarked) [Compound Va]: the “Signal to noise ratio, LB1:20 (to sterile)” value in assay [5] came to 1; in assay [6] (setting [8]), 14; in assay [6] (setting [13]), 79; in assay [6] (setting [9]), 1085; in assay [6] (setting [14]), 1698; in assay [6] (setting [10]) it was 871. The “RLU, 6 h LB” value in assay [5] (setting [12]) came out at 66 RLU; in assay [6] (setting [8]), 551 RLU; in assay [6] (setting [13]), 3317 RLU; in assay [6] (setting [9]) it was 49434 RLU; in assay [6] (setting [14]), 43412 RLU; in assay [6] (setting [10]), 18830 RLU. Besides, the “RLU, 6 h LB1:20” value in assay [5] (setting [12]) is 125 RLU; in assay [6] (setting [8]), 1369 RLU; in assay [6] (setting [13]), 7690 RLU; in assay [6] (setting [9]), 105252 RLU; in assay [6] (setting [14]) it was 164721 RLU; in assay [6] (setting [10]), 84511 RLU. Also, the “signal to noise ratio higher than with D-Luciferin-6-O-beta-D-galactopyranoside” value in assay [6] (lowest tested inoculation density of E. coli, 5-fold lower working concentration) was determined as 9 fold.

Consider `CCCCCCCC(=O)Oc1ccc(COc2ccc3nc(C4=N[C@@H](C(=O)O)CS4)sc3c2)cc1` [D-luciferin-6-O-phenyl-caprylate], for which the “Signal to noise ratio (to sterile)” value is on record as 1.1 in assay [7] (setting [8]), 1.6 in assay [7] (setting [9]) and 24 in assay [7] (setting [10]). The “RLU, 6 h” value worked out at 18354 RLU in assay [7] (setting [8]), 27783 RLU in assay [7] (setting [9]) and 417195 RLU in assay [7] (setting [10]).

The record behind these values is US11649475B2, “Dioxetane compounds and their use for the detection of microorganisms” (NEMIS Technologies AG, priority 2018, dated 2023).
